# Test results: publication doi:10.1101/2024.08.13.607785v1 (biorxiv, 2024)
# Like-named read-outs stand apart in the source and are kept apart here.
# Experiments:
# Experiment in all cases: biochemical
# Parameters in all cases: species or system human cell line lysate
# [1] = molecular target: Aurora kinase C ; AURKC ; Q9UQB9 (Homo sapiens, UniProt Q9UQB9)
# [2] = molecular target: Casein kinase II subunit alpha ; CSNK2A1 ; P68400 (Homo sapiens, UniProt P68400)
# [3] = molecular target: Inhibitor of nuclear factor kappa-B kinase subunit epsilon ; IKBKE ; Q14164 (Homo sapiens, UniProt Q14164)
# [4] = molecular target: Isoform 3 of Casein kinase I isoform alpha ; CSNK1A1 ; P48729-3 (Homo sapiens, UniProt P48729)
# [5] = molecular target: Isoform 3 of Membrane-associated tyrosine- and threonine-specific cdc2 ; PKMYT1 ; Q99640-3 (Homo sapiens, UniProt Q99640)
# [6] = molecular target: Isoform Beta-II of Protein kinase C beta type ; PRKCB ; P05771-2 (Homo sapiens, UniProt P05771)
# [7] = molecular target: Isoform CSBP1 of Mitogen-activated protein kinase 14 ; MAPK14 ; Q16539-2 (Homo sapiens, UniProt Q16539)
# [8] = molecular target: Microtubule-associated serine/threonine-protein kinase 2 ; MAST2 ; Q6P0Q8 (Homo sapiens, UniProt Q6P0Q8)
# Chain of Microtubule-associated serine/threonine-protein kinase 2 ; MAST2 ; Q6P0Q8 (Q6P0Q8 whole entry, one chain of several): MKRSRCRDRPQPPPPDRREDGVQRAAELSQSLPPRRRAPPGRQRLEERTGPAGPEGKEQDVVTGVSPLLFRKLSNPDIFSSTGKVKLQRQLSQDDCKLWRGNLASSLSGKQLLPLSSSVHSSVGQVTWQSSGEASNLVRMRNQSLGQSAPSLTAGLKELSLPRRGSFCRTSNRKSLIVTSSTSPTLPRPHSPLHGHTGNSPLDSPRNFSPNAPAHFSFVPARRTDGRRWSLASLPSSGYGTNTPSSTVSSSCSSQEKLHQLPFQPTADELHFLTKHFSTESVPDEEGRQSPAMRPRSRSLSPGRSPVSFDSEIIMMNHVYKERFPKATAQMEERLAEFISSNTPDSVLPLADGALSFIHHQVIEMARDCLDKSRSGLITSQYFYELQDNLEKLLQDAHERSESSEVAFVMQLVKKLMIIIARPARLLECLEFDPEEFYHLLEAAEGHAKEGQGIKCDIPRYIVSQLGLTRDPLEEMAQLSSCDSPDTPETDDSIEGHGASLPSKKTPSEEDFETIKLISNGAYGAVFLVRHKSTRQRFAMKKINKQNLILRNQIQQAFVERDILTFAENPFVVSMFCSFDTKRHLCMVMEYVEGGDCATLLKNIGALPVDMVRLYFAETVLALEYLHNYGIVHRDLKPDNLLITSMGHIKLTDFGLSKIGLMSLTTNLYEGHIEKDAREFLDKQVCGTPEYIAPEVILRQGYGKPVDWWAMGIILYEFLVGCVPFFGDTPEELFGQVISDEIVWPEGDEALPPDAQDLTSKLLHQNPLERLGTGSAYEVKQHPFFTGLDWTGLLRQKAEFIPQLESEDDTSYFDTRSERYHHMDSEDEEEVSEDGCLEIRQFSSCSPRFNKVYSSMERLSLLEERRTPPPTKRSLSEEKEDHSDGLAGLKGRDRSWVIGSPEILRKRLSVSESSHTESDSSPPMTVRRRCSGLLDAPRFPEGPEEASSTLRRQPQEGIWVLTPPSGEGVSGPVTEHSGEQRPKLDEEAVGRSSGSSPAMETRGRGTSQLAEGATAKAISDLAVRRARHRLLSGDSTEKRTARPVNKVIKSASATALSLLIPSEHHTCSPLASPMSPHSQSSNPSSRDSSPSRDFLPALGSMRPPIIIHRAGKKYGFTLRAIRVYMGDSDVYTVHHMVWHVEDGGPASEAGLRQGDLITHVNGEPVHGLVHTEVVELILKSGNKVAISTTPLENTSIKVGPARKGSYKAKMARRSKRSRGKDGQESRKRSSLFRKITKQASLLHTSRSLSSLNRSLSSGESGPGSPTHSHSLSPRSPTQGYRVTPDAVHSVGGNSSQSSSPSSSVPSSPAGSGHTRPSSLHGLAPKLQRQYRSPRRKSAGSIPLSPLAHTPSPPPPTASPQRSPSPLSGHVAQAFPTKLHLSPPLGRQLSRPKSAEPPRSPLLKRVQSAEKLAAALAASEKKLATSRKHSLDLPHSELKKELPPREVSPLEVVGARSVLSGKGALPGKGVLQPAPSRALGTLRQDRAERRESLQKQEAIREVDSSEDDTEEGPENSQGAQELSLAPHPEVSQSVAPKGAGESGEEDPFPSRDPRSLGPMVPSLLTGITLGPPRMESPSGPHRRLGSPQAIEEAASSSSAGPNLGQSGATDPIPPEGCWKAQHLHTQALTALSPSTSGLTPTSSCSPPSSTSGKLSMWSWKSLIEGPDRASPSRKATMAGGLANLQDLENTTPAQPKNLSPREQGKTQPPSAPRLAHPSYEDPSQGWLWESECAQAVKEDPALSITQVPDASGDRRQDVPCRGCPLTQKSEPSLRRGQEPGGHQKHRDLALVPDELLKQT
# [9] = molecular target: Mitogen-activated protein kinase 3 ; MAPK3 ; P27361 (Homo sapiens, UniProt P27361)
# [10] = molecular target: Mitogen-activated protein kinase kinase kinase 2 ; MAP3K2 ; Q9Y2U5 (Homo sapiens, UniProt Q9Y2U5)
# [11] = molecular target: Pyridoxal kinase ; PDXK ; O00764 (Homo sapiens, UniProt O00764)
# Chain of Pyridoxal kinase ; PDXK ; O00764 (O00764 whole entry): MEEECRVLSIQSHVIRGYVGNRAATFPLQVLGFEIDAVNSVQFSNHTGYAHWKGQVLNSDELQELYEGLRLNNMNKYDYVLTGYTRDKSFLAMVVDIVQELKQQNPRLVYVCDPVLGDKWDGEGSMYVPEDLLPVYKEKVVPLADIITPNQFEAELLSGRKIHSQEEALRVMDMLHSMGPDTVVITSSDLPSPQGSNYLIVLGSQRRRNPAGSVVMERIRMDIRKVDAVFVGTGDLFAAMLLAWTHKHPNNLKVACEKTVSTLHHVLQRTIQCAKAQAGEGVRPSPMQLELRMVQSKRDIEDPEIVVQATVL
# [12] = molecular target: RAC-beta serine/threonine-protein kinase ; AKT2 ; P31751 (Homo sapiens, UniProt P31751)
# [13] = molecular target: Rho-associated protein kinase 1 ; ROCK1 ; Q13464 (Homo sapiens, UniProt Q13464)
# Chain of Rho-associated protein kinase 1 ; ROCK1 ; Q13464 (Q13464 whole entry): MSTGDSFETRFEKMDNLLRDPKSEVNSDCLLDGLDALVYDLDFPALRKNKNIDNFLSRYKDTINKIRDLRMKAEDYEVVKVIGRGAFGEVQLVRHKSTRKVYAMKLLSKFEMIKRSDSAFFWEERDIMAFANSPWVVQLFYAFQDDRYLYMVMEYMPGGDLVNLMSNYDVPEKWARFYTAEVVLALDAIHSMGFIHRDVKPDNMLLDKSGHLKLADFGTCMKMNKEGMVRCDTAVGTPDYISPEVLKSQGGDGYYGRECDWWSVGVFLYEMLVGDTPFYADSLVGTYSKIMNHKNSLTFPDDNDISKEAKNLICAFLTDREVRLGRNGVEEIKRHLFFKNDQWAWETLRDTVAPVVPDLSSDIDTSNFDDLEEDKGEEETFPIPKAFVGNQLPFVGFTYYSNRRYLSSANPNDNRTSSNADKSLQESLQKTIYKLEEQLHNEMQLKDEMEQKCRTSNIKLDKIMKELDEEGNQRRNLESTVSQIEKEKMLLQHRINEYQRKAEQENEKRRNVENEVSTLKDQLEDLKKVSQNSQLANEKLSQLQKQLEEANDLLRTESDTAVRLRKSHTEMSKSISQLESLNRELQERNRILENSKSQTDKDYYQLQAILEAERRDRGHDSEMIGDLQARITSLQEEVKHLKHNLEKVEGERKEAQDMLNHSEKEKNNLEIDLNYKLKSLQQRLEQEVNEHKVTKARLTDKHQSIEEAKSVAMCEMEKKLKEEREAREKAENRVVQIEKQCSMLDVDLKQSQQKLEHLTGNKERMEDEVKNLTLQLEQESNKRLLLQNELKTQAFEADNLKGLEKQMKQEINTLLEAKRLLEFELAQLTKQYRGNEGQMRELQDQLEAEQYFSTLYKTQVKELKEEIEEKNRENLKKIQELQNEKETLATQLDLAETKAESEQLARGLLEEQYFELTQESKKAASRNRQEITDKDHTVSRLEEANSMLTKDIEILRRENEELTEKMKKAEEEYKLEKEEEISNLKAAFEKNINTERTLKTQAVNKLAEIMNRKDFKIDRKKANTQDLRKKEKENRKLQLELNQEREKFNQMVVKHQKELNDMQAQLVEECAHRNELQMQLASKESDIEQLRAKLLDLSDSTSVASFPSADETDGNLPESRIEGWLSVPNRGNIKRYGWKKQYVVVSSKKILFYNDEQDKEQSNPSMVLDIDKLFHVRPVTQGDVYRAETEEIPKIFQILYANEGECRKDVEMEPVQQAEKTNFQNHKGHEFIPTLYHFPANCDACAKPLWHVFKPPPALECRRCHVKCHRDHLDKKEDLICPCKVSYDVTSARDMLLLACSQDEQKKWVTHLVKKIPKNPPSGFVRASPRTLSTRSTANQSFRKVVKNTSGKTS
# [14] = molecular target: Serine/threonine-protein kinase 3 ; STK3 ; Q13188 (Homo sapiens, UniProt Q13188)
# [15] = molecular target: Serine/threonine-protein kinase 4 ; STK4 ; Q13043 (Homo sapiens, UniProt Q13043)
# [16] = molecular target: Serine/threonine-protein kinase BRSK1 ; BRSK1 ; Q8TDC3 (Homo sapiens, UniProt Q8TDC3)
# [17] = molecular target: Serine/threonine-protein kinase LATS1 ; LATS1 ; O95835 (Homo sapiens, UniProt O95835)
# [18] = molecular target: Serine/threonine-protein kinase PDIK1L ; PDIK1L ; Q8N165 (Homo sapiens, UniProt Q8N165)
# [19] = molecular target: Serine/threonine-protein kinase SIK2 ; SIK2 ; Q9H0K1 (Homo sapiens, UniProt Q9H0K1)
# [20] = molecular target: Serine/threonine-protein kinase TAO1 ; TAOK1 ; Q7L7X3 (Homo sapiens, UniProt Q7L7X3)
# [21] = molecular target: Tyrosine-protein kinase Fgr ; FGR ; P09769 (Homo sapiens, UniProt P09769)
# [22] = molecular target: Tyrosine-protein kinase JAK1 ; JAK1 ; P23458 (Homo sapiens, UniProt P23458)
# Chain of Tyrosine-protein kinase JAK1 ; JAK1 ; P23458 (P23458 whole entry): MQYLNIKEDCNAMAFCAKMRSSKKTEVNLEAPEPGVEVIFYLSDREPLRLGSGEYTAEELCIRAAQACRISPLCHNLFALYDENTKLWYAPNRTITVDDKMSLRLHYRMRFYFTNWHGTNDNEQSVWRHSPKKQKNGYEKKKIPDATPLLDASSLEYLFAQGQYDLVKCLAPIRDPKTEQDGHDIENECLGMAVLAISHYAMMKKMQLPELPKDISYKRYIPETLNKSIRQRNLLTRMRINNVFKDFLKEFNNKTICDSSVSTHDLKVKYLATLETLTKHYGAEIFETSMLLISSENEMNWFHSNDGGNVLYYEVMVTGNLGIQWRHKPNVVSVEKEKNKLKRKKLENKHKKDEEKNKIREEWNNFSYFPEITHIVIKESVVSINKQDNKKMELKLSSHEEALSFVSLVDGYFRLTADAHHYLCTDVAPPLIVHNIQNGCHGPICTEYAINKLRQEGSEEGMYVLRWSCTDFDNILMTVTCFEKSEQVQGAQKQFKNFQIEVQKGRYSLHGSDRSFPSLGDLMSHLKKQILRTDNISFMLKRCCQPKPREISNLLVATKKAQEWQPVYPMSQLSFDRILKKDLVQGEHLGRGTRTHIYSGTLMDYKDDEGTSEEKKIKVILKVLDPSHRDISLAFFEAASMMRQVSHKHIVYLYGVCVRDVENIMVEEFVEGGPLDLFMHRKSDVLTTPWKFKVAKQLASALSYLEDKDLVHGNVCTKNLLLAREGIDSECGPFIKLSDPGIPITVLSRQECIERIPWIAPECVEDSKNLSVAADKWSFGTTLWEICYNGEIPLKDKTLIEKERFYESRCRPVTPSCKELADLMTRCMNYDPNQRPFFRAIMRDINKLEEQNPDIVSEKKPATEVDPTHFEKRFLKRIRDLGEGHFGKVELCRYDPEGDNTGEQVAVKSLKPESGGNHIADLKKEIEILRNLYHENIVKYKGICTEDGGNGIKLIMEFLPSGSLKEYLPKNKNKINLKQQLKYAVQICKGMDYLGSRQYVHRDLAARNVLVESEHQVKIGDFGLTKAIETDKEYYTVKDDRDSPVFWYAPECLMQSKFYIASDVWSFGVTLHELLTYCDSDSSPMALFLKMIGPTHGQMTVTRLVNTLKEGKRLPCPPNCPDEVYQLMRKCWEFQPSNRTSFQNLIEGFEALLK
# [23] = molecular target: cAMP-dependent protein kinase catalytic subunit PRKX ; PRKX ; P51817 (Homo sapiens, UniProt P51817)
# [24] = read-out: BAY-1143572 (10 µM) / %Intensity relative to DMSO
# [25] = read-out: BAY-1251152 (10 µM) / %Intensity relative to DMSO
# Chain of Casein kinase II subunit alpha ; CSNK2A1 ; P68400 (P68400 whole entry, one chain of several): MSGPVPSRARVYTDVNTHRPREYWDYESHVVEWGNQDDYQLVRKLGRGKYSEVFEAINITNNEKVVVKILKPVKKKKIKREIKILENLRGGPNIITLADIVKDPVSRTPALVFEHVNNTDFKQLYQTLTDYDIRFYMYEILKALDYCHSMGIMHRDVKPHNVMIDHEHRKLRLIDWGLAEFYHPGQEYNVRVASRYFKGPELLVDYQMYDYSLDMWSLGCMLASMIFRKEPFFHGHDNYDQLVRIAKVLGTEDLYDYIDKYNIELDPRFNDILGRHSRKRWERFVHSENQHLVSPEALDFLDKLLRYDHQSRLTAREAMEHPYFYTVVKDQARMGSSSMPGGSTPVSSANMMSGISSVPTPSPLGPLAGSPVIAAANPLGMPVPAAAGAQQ
compound,measurement,setting,value
COc1cc(F)ccc1-c1ncnc(Nc2cccc(C[S@](C)(=N)=O)c2)n1 [BAY-1143572],remaining activity at 10 µM,[1]; [24],105%
same,remaining activity at 10 µM,[2]; [24],110%
same,remaining activity at 10 µM,[3]; [24],110%
same,remaining activity at 10 µM,[4]; [24],115%
same,remaining activity at 10 µM,[5]; [24],117%
same,remaining activity at 10 µM,[6]; [24],121%
same,remaining activity at 10 µM,[7]; [24],133%
same,remaining activity at 10 µM,[8]; [24],42.2%
same,remaining activity at 10 µM,[9]; [24],104%
same,remaining activity at 10 µM,[10]; [24],106%
same,remaining activity at 10 µM,[11]; [24],139%
same,remaining activity at 10 µM,[12]; [24],117%
same,remaining activity at 10 µM,[13]; [24],114%
same,remaining activity at 10 µM,[14]; [24],103%
same,remaining activity at 10 µM,[15]; [24],108%
same,remaining activity at 10 µM,[16]; [24],95.3%
same,remaining activity at 10 µM,[17]; [24],118%
same,remaining activity at 10 µM,[18]; [24],119%
same,remaining activity at 10 µM,[19]; [24],102%
same,remaining activity at 10 µM,[20]; [24],114%
same,remaining activity at 10 µM,[21]; [24],96.5%
same,remaining activity at 10 µM,[22]; [24],104%
same,remaining activity at 10 µM,[23]; [24],152%
COc1cc(F)ccc1-c1cc(Nc2cc(CS(C)(=N)=O)ccn2)ncc1F (stereo not shown) [BAY-1251152],remaining activity at 10 µM,[1]; [25],41.7%
same,remaining activity at 10 µM,[2]; [25],105%
same,remaining activity at 10 µM,[3]; [25],112%
same,remaining activity at 10 µM,[4]; [25],111%
same,remaining activity at 10 µM,[5]; [25],107%
same,remaining activity at 10 µM,[6]; [25],119%
same,remaining activity at 10 µM,[7]; [25],120%
same,remaining activity at 10 µM,[8]; [25],32.9%
same,remaining activity at 10 µM,[9]; [25],96.8%
same,remaining activity at 10 µM,[10]; [25],103%
same,remaining activity at 10 µM,[11]; [25],119%
same,remaining activity at 10 µM,[12]; [25],119%
same,remaining activity at 10 µM,[13]; [25],110%
same,remaining activity at 10 µM,[14]; [25],91.9%
same,remaining activity at 10 µM,[15]; [25],94.2%
same,remaining activity at 10 µM,[16]; [25],96%
same,remaining activity at 10 µM,[17]; [25],114%
same,remaining activity at 10 µM,[18]; [25],129%
same,remaining activity at 10 µM,[19]; [25],106%
same,remaining activity at 10 µM,[20]; [25],88.3%
same,remaining activity at 10 µM,[21]; [25],97.1%
same,remaining activity at 10 µM,[22]; [25],110%
same,remaining activity at 10 µM,[23]; [25],140%
